Test results reported in patent publication US20090234019A1, “T Type Calcium Channel Inhibitors” (priority 2004, published 2009).

Key:
[1] = test system: PC3 cells; assay: Inhibition of proliferation of PC3 cells; assay type: cell-based, human; settings: Homo sapiens, PC-3; PC3; NE = no effect at highest concentration of drug tested; read-out: prolif: IC50 for inhibition of proliferation, PC3
Procedure: (§1) Cancer cell lines were obtained from the American Type Culture Collection (Manassas, Va.). Cell lines were maintained in RPMI1640 supplemented with glutamine and 5% fetal bovine serum containing SerXtend (Irvine Scientific) when appropriate insulin, as directed by the ATCC. The fetal bovine serum used for culture was heat-inactivated by maintaining the serum at 56° C. for 1 h. Cell lines used were a T celleukemia (Jurkat), prostate cancer (PC3, DU145, LNCAP), breast cancer (MDA468, MDA361, MCF7), pancreatic cancer (MIA PaCa2), liver cancer (Hep G2), lung cancer (A549, NCl H460), colon cancer (HT29, HCT 116), and ovarian cancer (SK-OV-3).
(§2) LNCaP cells at 2.5×10^4 cells/well or PC-3 cells at 5×10^4 cells/well, both in a final volume of […], were plated in triplicate in standard flat-bottomed 96-well tissue culture plates in the presence of drug or vehicle (DMSO). Unless otherwise indicated, cells were grown for 48 h at 37° C. in a CO2 incubator. Relative cell growth was determined with the CellTiter 96 aqueous cell proliferation assay (Promega, Madison, Wis.) as described by the manufacturer using an automated plate reader. Results were calculated in a blinded fashion and are the means of triplicate determinations.

[2] = test system: MDA-231 cells; assay: Inhibition of proliferation of MDA-231 cells; assay type: cell-based; settings: Homo sapiens, MDA-MB-231, NE = no effect at highest concentration of drug tested, read-out: prolif: IC50 for inhibition of proliferation, MDA-231
[3] = test system: MDA-435 cells; assay: Inhibition of proliferation of MDA-435 cells; assay type: cell-based; settings: MDA435, NE = no effect at highest concentration of drug tested, read-out: prolif: IC50 for inhibition of proliferation, MDA-435
[4] = test system: LNCaP cells; assay: Inhibition of proliferation of LNCaP cells; assay type: cell-based; settings: Homo sapiens, NE = no effect at highest concentration of drug tested, read-out: prolif: IC50 for inhibition of proliferation, LNCaP
Procedure: as §1, §2

[5] = test system: Jurkat cells; assay: Inhibition of proliferation of Jurkat cells; assay type: cell-based, human
Procedure: as §1, §2

[6] = test system: MDA-231 cells; assay: Inhibition of calcium entry into MDA-231 cells; assay type: cell-based; settings: Homo sapiens, MDA-MB-231, NE = no effect at highest concentration of drug tested, read-out: Ca2+: IC50 for inhibition of calcium entry, MDA-231
Procedure: (§3) Cells were incubated in growth media containing 1 uM of the acetoxy-methyl ester of the Ca2+-sensitive fluorescent dye indo-1 (indo-1/AM; Molecular Probes, Eugene, Oreg.) for 1 h at 37° C. Cells were washed three times in buffer A [10 mM HEPES (pH 7.4), 1 mM MgCl2, 3 mM KCl, 1 mM CaCl2, 140 mM NaCl, 0.1% glucose, and 1% fetal bovine serum] and suspended to a final concentration of 10^6 cells/ml. Before stimulation, cells were warmed to 37° C. Changes in [Ca2+]i were monitored in an SLM 8100C spectrofluorimeter (SLM/Aminco; Urbana, Ill.) using previously published methods (Densmore, J. J., Haverstick, D. M., Szabo, G., and Gray, L. S. 1996. A voltage operable current is involved in activation-induced Ca^2+ entry in human lymphocytes whereas ICRAC has no apparent role. Am. J. Physiol. 271:C1494-C1503; Haverstick, D. M., Densmore, J. J., and Gray, L. S. 1998. Calmodulin regulation of Ca^2+ entry in Jurkat T cells. Cell Calcium 23:361-368).

[7] = test system: MDA-361 cells; assay: Inhibition of proliferation of MDA-361 cells; assay type: cell-based; settings: MDA361, NE = no effect at highest concentration of drug tested, read-out: prolif: IC50 for inhibition of proliferation, MDA-361
Procedure: as §1, §2

[8] = test system: Jurkat cells; assay: Inhibition of calcium entry into Jurkat cells (indo-1 fluorescence); assay type: cell-based, human
Procedure: as §3, with “8100C” left out, “([…].,” for “(Densmore, J. J., Haverstick, D. M.,”, “271:[…].,” for “271:C1494-C1503; Haverstick, D. M., Densmore, J. J.,”

[9] = test system: MDA-361 cells; assay: Inhibition of calcium entry into MDA-361 cells; assay type: cell-based; settings: MDA361, NE = no effect at highest concentration of drug tested, read-out: Ca2+: IC50 for inhibition of calcium entry, MDA-361
Procedure: as §3

[10] = test system: LNCaP cells; assay: Inhibition of calcium entry into LNCaP cells; assay type: cell-based; settings: Homo sapiens, NE = no effect at highest concentration of drug tested, read-out: Ca2+: IC50 for inhibition of calcium entry, LNCaP
Procedure: as §3

[11] = Homo sapiens, Jurkat, NE = no effect at highest concentration of drug tested, read-out: prolif: IC50 for inhibition of proliferation, Jurkat
[12] = Homo sapiens, Jurkat, NE = no effect at highest concentration of drug tested, read-out: Ca2+: IC50 for inhibition of calcium entry, Jurkat
[13] = Jurkat cell line, Tables 1 and 2, unit inferred, read-out: IC50 for inhibition of Ca^2+ entry
[14] = Jurkat cell line, Tables 1 and 2, unit inferred, read-out: IC50 for inhibition of proliferation
[15] = Homo sapiens, Jurkat cell line, Tables 1 and 2, unit inferred, read-out: IC50 for inhibition of Ca^2+ entry
[16] = Homo sapiens, Jurkat cell line, Tables 1 and 2, unit inferred, read-out: IC50 for inhibition of proliferation

IC50 [1] [µM]	IC50 [4] [µM]	IC50 [5, 11] [µM]	IC50 [8, 15] [µM]	IC50 [5, 16] [µM]	Compound	IC50 [2] [µM]	IC50 [3] [µM]	also measured
> 100	~100	~30	–	–	COc1ccc(CCCCCCNC(c2ccccc2)c2ccc(Cl)cc2)cc1 (stereo not drawn) [Compound 3.23]	> 100	> 100	–
> 100	~100	~100	–	–	COc1ccc(COCCOC(c2ccccc2)c2ccc(Cl)cc2)cc1 (stereo not drawn) [Compound 3.7]	> 100	> 100	IC50 [6]: 60 µM; IC50 [7]: > 100 µM; IC50 [8, 12]: 10 µM
–	–	–	–	–	COCCOC(=O)C1=C(C)NC(C)=C(C(=O)OC(C)C)C1c1cccc([N+](=O)[O-])c1 (stereo not drawn) [Nimpodipine]	–	–	IC50 [8, 13]: > 100 µM; IC50 [5, 14]: > 100 µM
14	3.3	5.4	–	–	COc1ccc(CNCc2ccccc2COC(c2ccccc2)c2ccc(Cl)cc2)cc1 (stereo not drawn) [Compound 3.11]	11.6	22	IC50 [6]: 20 µM; IC50 [7]: 8.5 µM; IC50 [9]: 10 µM; IC50 [8, 12]: 3.3 µM
–	–	–	30	30	CCC(=O)c1ccc2c(c1)N(CC(C)N(C)C)c1ccccc1S2 (stereo not drawn) [Propiomazine]	–	–	–
–	–	–	–	–	Prenylamine lactate	–	–	IC50 [8, 13]: 10 µM; IC50 [5, 14]: 10 µM
–	–	–	10	30	CC(NCCC(c1ccccc1)c1ccccc1)c1ccccc1 (stereo not drawn) [Fendiline]	–	–	–
–	–	–	50	100	O=C(O)c1cccnc1Nc1cccc(C(F)(F)F)c1 [Niflumic acid]	–	–	–
55	33	23	–	–	COc1ccc(CC[N+](C)(C)CCOC(c2ccccc2)c2ccc(Cl)cc2)cc1 (stereo not drawn) [Compound 3.16]	21	50	IC50 [10]: 10 µM; IC50 [7]: 8 µM; IC50 [8, 12]: 30 µM
–	–	–	10	100	COC(=O)C1=C(C)NC(C)=C(C(=O)OC(C)C)C1c1cccc2nonc12 (stereo not drawn) [Isradipine]	–	–	–
–	–	–	10	30	CN(C)CCCN1c2ccccc2Sc2ccccc21 [Promazine]	–	–	–
> 100	42	70	–	–	COc1ccc(CCCNCCCC(c2ccccc2)c2ccc(Cl)cc2)cc1 (stereo not drawn) [Compound 3.3]	> 100	> 100	IC50 [6]: 100 µM; IC50 [8, 12]: 60 µM
–	–	–	5	10	Cc1cccc(C)c1NC(=O)CN1CCN(CCCC(c2ccc(F)cc2)c2ccc(F)cc2)CC1 [Lidoflazine]	–	–	–
–	–	–	> 100	> 100	O=c1[nH]c2ccccc2n1C1CCN(CCCC(c2ccc(F)cc2)c2ccc(F)cc2)CC1 [Pimozide]	–	–	–
–	–	–	60	4	CC(CN1c2ccccc2Sc2ccccc21)N(C)C (stereo not drawn) [Promethazine]	–	–	–
